Where two headings read alike, the source gives them in different places.
Tests used:
[1] = Prodan in DMSO taken as reference; cited from earlier work
[2] = cited from earlier work
[3] = Absorption spectra (absorption maxima) of dyes in organic solvents; type: physicochemical
Source text: (§1) All commercially available compounds were purchased from Aldrich Chemical Co., GFS Chemicals, Strem Chemicals, Acros Organics, Alfa Aesar, and Advanced Chemtech and used as received, except for p-toluenesulfonyl hydrazide, which was recrystallized from methanol. Amines were purchased from Aldrich Chemical Co. as purified by redistillation and used as received. Tetrahydrofuran (THF), diethyl ether (Et2O), and dichloromethane (CH2Cl2) were purified by passing through alumina using the Sol-Tek ST-002 solvent purification system. Acetonitrile (MeCN) and toluene were freshly distilled from CaH2 prior to use. Benzene was freshly distilled from sodium/benzophenone prior to use Anhydrous N,N-dimethylformamide (DMF), 1,2-dichloroethane (DCE), and 1,4-dioxane were purchased and used as received from Aldrich Chemical Co. Purification of the compounds by flash column chromatography was performed using silica gel (32-63 μm particle size, 60 Å pore size) purchased from Silicycle, or by using a Biotage Horizon flash purification system with either Biotage SNAP KP-SIL silica cartridges, or Teledyne ISCO RediSep Rf normal phase disposable flash columns (40-60 micron). TLC analyses were performed on EMD Chemicals Silica Gel 60 F254 glass plates (250 μm thickness). ^1H NMR and ^13C NMR spectra were recorded on Bruker Avance 300 MHz, 500 MHz, or 600 MHz spectrometers. Spectra were referenced to residual chloroform (7.27 ppm, ^1H, 77.0 ppm, ^13C) or 1,2-dichlorobenzene (6.93 ppm, ^1H, 127.19 ppm, ^13C). Chemical shifts are reported in ppm, multiplicities are indicated by s (singlet), d (doublet), t (triplet), q (quartet), p (pentet), and m (multiplet). Coupling constants, J, are reported in hertz (Hz). All NMR spectra were obtained at room temperature unless otherwise specified. IR spectra were obtained using a Nicolet Avatar E.S.P. 360 FT-IR. EI mass spectroscopy was performed on a Waters Micromass GCT high resolution mass spectrometer. ES mass spectroscopy was performed on a Waters Q-TOF Ultima API, Micromass UK Limited high resolution mass spectrometer. GC mass spectrometry was performed on a Shimadzu GCMS-17A/QP5050A spectrometer. All microwave-mediated reactions were carried out using a Biotage Initiator™ Exp microwave synthesizer. The microwave parameters were set to variable power, constant temperature, with the fixed hold time set to on. The microwave reactions were carried out in 0.2-0.5 mL, 0.5-2 mL, 2-5 mL, or 10-20 mL Biotage microwave vials. […] Absorption and fluorescence spectra were recorded on Lambda 9 spectrophotometer (Perkin Elmer) and FluoroMax-3 spectrofluorometer (Jobin Yvon, Horiba), respectively. Fluorescence quantum yields were determined by taking Prodan in DMSO (quantum yield, QY=91%) as a reference. The quantum yield values were corrected for the solvent refractive index. For spectroscopic measurements, 10^−5 M solutions of dyes in 10 mm quartz-cuvettes were used (excitation wavelength was 334 nm; slits open to 2 nm).

[4] = Fluorescence quantum yield vs Prodan in DMSO as reference; type: physicochemical; conditions: for QY (fluorescence quantum yield vs Prodan in DMSO (91%)): excitation 334 nm, 10^-5 M
Source text: as §1

CCC(=O)c1ccc2cc(N(C)C)ccc2c1 [Prodan, reference compound]
quantum yield, QY (reference value) [1]: 91%
Bathochromic shift ([2]; cyclohexane to water (background)): 124 nm
fluorescent emission ([2]; in cyclohexane (background)): 410 nm
fluorescent emission ([2]; in water (background)): 534 nm
λabs (maximum absorption) ([3]; 1,4-Dioxane): 346 nm
λabs (maximum absorption) ([3]; Acetonitrile): 350 nm
λabs (maximum absorption) ([3]; CH2Cl2): 355 nm
λabs (maximum absorption) ([3]; DMSO): 357 nm
λabs (maximum absorption) ([3]; EtOH): 362 nm
λabs (maximum absorption) ([3]; THF): 348 nm
λabs (maximum absorption) ([3]; Toluene): 346 nm
λabs (maximum absorption) ([3]; n-Hexane): 340 nm
QY (fluorescence quantum yield vs Prodan in DMSO (91%)) ([4]; 1,4-Dioxane): 75%
QY (fluorescence quantum yield vs Prodan in DMSO (91%)) ([4]; Acetonitrile): 80%
QY (fluorescence quantum yield vs Prodan in DMSO (91%)) ([4]; CH2Cl2): 98%
QY (fluorescence quantum yield vs Prodan in DMSO (91%)) ([4]; DMSO): 91%
QY (fluorescence quantum yield vs Prodan in DMSO (91%)) ([4]; EtOH): 71%
QY (fluorescence quantum yield vs Prodan in DMSO (91%)) ([4]; THF): 78%
QY (fluorescence quantum yield vs Prodan in DMSO (91%)) ([4]; Toluene): 56%
QY (fluorescence quantum yield) ([4]; n-Hexane): 2.0%

Reference: patent US9896479B2, “Functionalized naphthalene fluorophores” (Kay M. Brummond, priority 2012, dated 2018)
